# Measurements published in PubChem BioAssay AID256 (DTP/NCI, 2004).
# Values joined by “and” are separate entries in the source; they are usually repeats but may differ in a detail not shown here. Identical values can stand only once. Toxic doses and inconclusive results are not listed.
# Tested on: CD2F1 mice, L1210 leukemia ip, survival T/C
# Experiment: NCI In Vivo Anticancer Drug Screen. Data for tumor model L1210 Leukemia (intraperitoneal) in CD2F1 (CDF1) mice
# Conditions: higher = longer survival
# Method in brief: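 Tumor-bearing mice (transplanted tumor) were split into treated and vehicle control groups, and the measured endpoint of each treated group was divided by that of its vehicle controls.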
# [1] = endpoint: mean survival time, dose: 100.0 mg/kg/injection, schedule: Q01DX009 (ip), vehicle: saline with Tween-80
# [2] = endpoint: mean survival time, dose: 100.0 mg/kg/injection, schedule: Q04DX003 (ip), vehicle: saline with Tween-80
# [3] = endpoint: mean survival time, dose: 200.0 mg/kg/injection, schedule: Q01DX009 (ip), vehicle: saline with Tween-80
# [4] = endpoint: mean survival time, dose: 200.0 mg/kg/injection, schedule: Q04DX003 (ip), vehicle: saline with Tween-80
# [5] = endpoint: mean survival time, dose: 400.0 mg/kg/injection, schedule: Q01DX009 (ip), vehicle: saline with Tween-80
# [6] = endpoint: mean survival time, dose: 400.0 mg/kg/injection, schedule: Q04DX003 (ip), vehicle: saline with Tween-80
compound,measurement,setting,value
O=C1C=CC(=O)N1c1ccc(Cl)cc1Cl,T/C,"endpoint: mean survival time, dose: 12.5 mg/kg/injection, schedule: Q04DX003 (ip), vehicle: saline with Tween-80",103 % of control
same,T/C,"endpoint: mean survival time, dose: 25.0 mg/kg/injection, schedule: Q04DX003 (ip), vehicle: saline with Tween-80",100 % of control
Cc1cc2c(c3oc(C4(C)OC4C4OC4C)cc(=O)c13)C(=O)c1c(O)c(C3CC(C)(N(C)C)C(O)C(C)O3)cc(C3CC(N(C)C)C(O)C(C)O3)c1C2=O (centres undefined),T/C,"endpoint: mean survival time, dose: 0.07 mg/kg/injection, schedule: Q01DX009 (oral), vehicle: saline",87 % of control
same,T/C,"endpoint: mean survival time, dose: 0.13 mg/kg/injection, schedule: Q01DX009 (oral), vehicle: saline",93 % of control
same,T/C,"endpoint: mean survival time, dose: 0.25 mg/kg/injection, schedule: Q01DX001 (oral), vehicle: saline",98 % of control
same,T/C,"endpoint: mean survival time, dose: 0.25 mg/kg/injection, schedule: Q01DX009 (oral), vehicle: saline",92 % of control
same,T/C,"endpoint: mean survival time, dose: 0.5 mg/kg/injection, schedule: Q01DX001 (oral), vehicle: saline",97 % of control
same,T/C,"endpoint: mean survival time, dose: 0.5 mg/kg/injection, schedule: Q01DX009 (oral), vehicle: saline",100 % of control
same,T/C,"endpoint: mean survival time, dose: 1.0 mg/kg/injection, schedule: Q01DX001 (oral), vehicle: saline",96 % of control
same,T/C,"endpoint: mean survival time, dose: 2.0 mg/kg/injection, schedule: Q01DX001 (oral), vehicle: saline",97 % of control
same,T/C,"endpoint: mean survival time, dose: 1.0 micrograms/kg/injection, schedule: Q03HX024 (ip), vehicle: saline",106 % of control
same,T/C,"endpoint: mean survival time, dose: 1.3 micrograms/kg/injection, schedule: Q01DX009 (ip), vehicle: water",101 % of control
same,T/C,"endpoint: mean survival time, dose: 2.0 micrograms/kg/injection, schedule: Q03HX024 (ip), vehicle: saline",111 % of control
same,T/C,"endpoint: mean survival time, dose: 2.5 micrograms/kg/injection, schedule: Q01DX009 (ip), vehicle: water",112 % of control
same,T/C,"endpoint: mean survival time, dose: 4.0 micrograms/kg/injection, schedule: Q01DX009 (ip), vehicle: saline",102 % of control
same,T/C,"endpoint: mean survival time, dose: 4.0 micrograms/kg/injection, schedule: Q03HX024 (ip), vehicle: saline",111 % of control
same,T/C,"endpoint: mean survival time, dose: 5.0 micrograms/kg/injection, schedule: Q01DX009 (ip), vehicle: water",108 % of control
same,T/C,"endpoint: mean survival time, dose: 8.0 micrograms/kg/injection, schedule: Q01DX009 (ip), vehicle: saline",109 % of control
same,T/C,"endpoint: mean survival time, dose: 8.0 micrograms/kg/injection, schedule: Q03HX008 (ip), vehicle: saline",103 % of control
same,T/C,"endpoint: mean survival time, dose: 8.0 micrograms/kg/injection, schedule: Q03HX024 (ip), vehicle: saline",112 % of control
same,T/C,"endpoint: mean survival time, dose: 10.0 micrograms/kg/injection, schedule: Q01DX009 (ip), vehicle: water",112 % of control
same,T/C,"endpoint: mean survival time, dose: 15.0 micrograms/kg/injection, schedule: Q01DX009 (ip), vehicle: saline",109 % of control
same,T/C,"endpoint: mean survival time, dose: 15.0 micrograms/kg/injection, schedule: Q03HX008 (ip), vehicle: saline",112 % of control
same,T/C,"endpoint: mean survival time, dose: 15.0 micrograms/kg/injection, schedule: Q08DX002 (ip), vehicle: saline",98 % of control
same,T/C,"endpoint: mean survival time, dose: 20.0 micrograms/kg/injection, schedule: Q01DX009 (ip), vehicle: water",106 % of control
same,T/C,"endpoint: mean survival time, dose: 30.0 micrograms/kg/injection, schedule: Q01DX009 (ip), vehicle: saline",114 % of control
same,T/C,"endpoint: mean survival time, dose: 30.0 micrograms/kg/injection, schedule: Q03HX008 (ip), vehicle: saline",113 % of control
same,T/C,"endpoint: mean survival time, dose: 30.0 micrograms/kg/injection, schedule: Q08DX002 (ip), vehicle: saline",98 % of control
same,T/C,"endpoint: mean survival time, dose: 40.0 micrograms/kg/injection, schedule: Q01DX009 (ip), vehicle: water",91 % of control
same,T/C,"endpoint: mean survival time, dose: 60.0 micrograms/kg/injection, schedule: Q03HX008 (ip), vehicle: saline",118 % of control
same,T/C,"endpoint: mean survival time, dose: 60.0 micrograms/kg/injection, schedule: Q08DX002 (ip), vehicle: saline",106 % of control
same,T/C,"endpoint: mean survival time, dose: 120.0 micrograms/kg/injection, schedule: Q08DX002 (ip), vehicle: saline",121 % of control
CCOC(=O)C(CC)CO (centres undefined),T/C,"endpoint: mean survival time, dose: 100.0 mg/kg/injection, schedule: Q04DX003 (ip), vehicle: saline",105 % of control
same,T/C,"endpoint: mean survival time, dose: 200.0 mg/kg/injection, schedule: Q04DX003 (ip), vehicle: saline",103 % of control
same,T/C,"endpoint: mean survival time, dose: 400.0 mg/kg/injection, schedule: Q04DX003 (ip), vehicle: saline",103 % of control
c1ccc2c(c1)C(=NN=C1c3ccccc3-c3ccccc31)c1ccccc1-2,T/C,[1],94 % of control
same,T/C,[2],94 % of control
same,T/C,[3],92 % of control
same,T/C,[4],88 % of control
same,T/C,[5],94 % of control
same,T/C,[6],88 % of control
CCCN(CCC)CCCC#N,T/C,"endpoint: mean survival time, dose: 50.0 mg/kg/injection, schedule: Q01DX009 (ip), vehicle: saline with Tween-80",100 % of control
same,T/C,[1],101 % of control
NC(=S)NNc1ccccn1,T/C,"endpoint: mean survival time, dose: 25.0 mg/kg/injection, schedule: Q04DX002 (ip), vehicle: saline",106 % of control
same,T/C,"endpoint: mean survival time, dose: 50.0 mg/kg/injection, schedule: Q04DX002 (ip), vehicle: saline",108 % of control
CC1CN1C(=O)Nc1cccc2c(NC(=O)N3CC3C)cccc12 (centres undefined),T/C,"endpoint: mean survival time, dose: 28.0 mg/kg/injection, schedule: Q01DX009 (ip), vehicle: Klucel (hydroxypropylcellulose) (HPC)",151 % of control
Cn1cc(NC(=O)c2cc(NC(=O)c3cc(NC=O)cn3C)cn2C)cc1C(=O)NCCC(=N)N,T/C,"endpoint: mean survival time, dose: 100.0 mg/kg/injection, schedule: Q04DX003 (ip), vehicle: alcohol",108 % of control
same,T/C,"endpoint: mean survival time, dose: 200.0 mg/kg/injection, schedule: Q04DX003 (ip), vehicle: alcohol",102 % of control
same,T/C,"endpoint: median survival time, dose: 12.5 mg/kg/injection, schedule: Q01DX009 (ip), vehicle: water",104 % of control
same,T/C,"endpoint: median survival time, dose: 25.0 mg/kg/injection, schedule: Q01DX009 (ip), vehicle: water",100 % of control
same,T/C,"endpoint: median survival time, dose: 50.0 mg/kg/injection, schedule: Q01DX009 (ip), vehicle: water",103 % of control
same,T/C,"endpoint: median survival time, dose: 100.0 mg/kg/injection, schedule: Q01DX009 (ip), vehicle: water",108 % of control
O=C(O)c1ccccc1N(CCO)CCCl,T/C,"endpoint: mean survival time, dose: 3.13 mg/kg/injection, schedule: Q01DX009 (ip), vehicle: saline with Tween-80",121 % of control and 110 % of control
same,T/C,"endpoint: mean survival time, dose: 6.25 mg/kg/injection, schedule: Q01DX009 (ip), vehicle: saline with Tween-80",119 % of control
same,T/C,"endpoint: mean survival time, dose: 10.0 mg/kg/injection, schedule: Q01DX009 (ip), vehicle: Klucel (hydroxypropylcellulose) (HPC)",186 % of control
CCOC(=O)/C=C/c1ccc(O)cc1,T/C,"endpoint: mean survival time, dose: 100.0 mg/kg/injection, schedule: Q04DX003 (ip), vehicle: Klucel (hydroxypropylcellulose) (HPC)",102 % of control
same,T/C,"endpoint: mean survival time, dose: 200.0 mg/kg/injection, schedule: Q04DX003 (ip), vehicle: Klucel (hydroxypropylcellulose) (HPC)",98 % of control
same,T/C,"endpoint: mean survival time, dose: 400.0 mg/kg/injection, schedule: Q04DX003 (ip), vehicle: Klucel (hydroxypropylcellulose) (HPC)",98 % of control
CCOC(=O)c1ccc2c(c1)Cc1cc(N)ccc1-2,T/C,"endpoint: mean survival time, dose: 100.0 mg/kg/injection, schedule: Q01DX001 (ip), vehicle: carboxymethylcellulose (CMC)",98 % of control
same,T/C,"endpoint: mean survival time, dose: 200.0 mg/kg/injection, schedule: Q01DX001 (ip), vehicle: carboxymethylcellulose (CMC)",95 % of control
C[C@]12C=CC(=O)C=C1CC[C@@H]1[C@@H]2CC[C@]2(C)OC(=O)CC[C@@H]12,T/C,"endpoint: median survival time, dose: 125.0 mg/kg/injection, schedule: Q01DX009 (sc), vehicle: steriod suspending solution",97 % of control
same,T/C,"endpoint: median survival time, dose: 125.0 mg/kg/injection, schedule: Q## X009 (sc), vehicle: steriod suspending solution",97 % of control
same,T/C,"endpoint: median survival time, dose: 250.0 mg/kg/injection, schedule: Q01DX009 (sc), vehicle: steriod suspending solution",104 % of control
same,T/C,"endpoint: median survival time, dose: 250.0 mg/kg/injection, schedule: Q## X009 (sc), vehicle: steriod suspending solution",104 % of control
same,T/C,"endpoint: median survival time, dose: 500.0 mg/kg/injection, schedule: Q01DX009 (sc), vehicle: steriod suspending solution",102 % of control
same,T/C,"endpoint: median survival time, dose: 500.0 mg/kg/injection, schedule: Q## X009 (sc), vehicle: steriod suspending solution",102 % of control
same,T/C,"endpoint: median survival time, dose: 1000.0 mg/kg/injection, schedule: Q01DX009 (sc), vehicle: steriod suspending solution",102 % of control
same,T/C,"endpoint: median survival time, dose: 1000.0 mg/kg/injection, schedule: Q## X009 (sc), vehicle: steriod suspending solution",102 % of control
O=Cc1cc2c(cc1Br)OCO2,T/C,[1],98 % of control
same,T/C,[2],98 % of control
same,T/C,[3],97 % of control
same,T/C,[4],101 % of control
same,T/C,[5],92 % of control
same,T/C,[6],98 % of control
COC1=C(C)C(=O)C2=C(C1=O)C(COC(N)=O)C(=O)C1NC1CN2C (centres undefined),T/C,"endpoint: mean survival time, dose: 4.7 mg/kg/injection, schedule: Q01DX001 (ip), vehicle: carboxymethylcellulose (CMC)",110 % of control
OCCCCSc1ccccc1,T/C,"endpoint: mean survival time, dose: 75.0 mg/kg/injection, schedule: Q04DX003 (ip), vehicle: saline",98 % of control
same,T/C,"endpoint: mean survival time, dose: 150.0 mg/kg/injection, schedule: Q04DX003 (ip), vehicle: saline",98 % of control
same,T/C,"endpoint: mean survival time, dose: 300.0 mg/kg/injection, schedule: Q04DX003 (ip), vehicle: saline",91 % of control
O=C1OC2C(Cl)CC(Cl)CC2C=C1c1cccc([N+](=O)[O-])c1 (centres undefined),T/C,[1],90 % of control
same,T/C,"endpoint: mean survival time, dose: 100.0 mg/kg/injection, schedule: Q04DX002 (ip), vehicle: saline with Tween-80",90 % of control
same,T/C,[3],94 % of control
same,T/C,"endpoint: mean survival time, dose: 200.0 mg/kg/injection, schedule: Q04DX002 (ip), vehicle: saline with Tween-80",90 % of control
same,T/C,[5],105 % of control
same,T/C,"endpoint: mean survival time, dose: 400.0 mg/kg/injection, schedule: Q04DX002 (ip), vehicle: saline with Tween-80",94 % of control
